From PubChem BioAssay (NCI) come the findings set out here.

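Each compound was tested at five concentrations against cells in 96-well plates for 48 hours. GI50 is the concentration that inhibits growth by half. TGI: total growth inhibition.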

Assay in all cases: growth of human tumour cells (NCI), 48 h
Assay [1] deals with 786-0 renal.
For assay [2], the system named is DU-145 prostate.
Assay [3] concerns HCT-15 colon.
For assay [4], the system named is HOP-62 NSCLC.
The subject of assay [5] is HS 578T breast.
For assay [6], the system named is MALME-3M melanoma.
Assay [7] deals with OVCAR-4 ovarian.
For assay [8], the system named is SF-539 CNS.
The test system of assay [9] is U251 CNS.
Assay [10] relates to UO-31 renal.

As to `CC1=CC[C@@H]2C(C)(C)C(=O)CC[C@@]2(C)[C@@H]1COc1ccc2ccc(=O)oc2c1`, the GI50 in assay [1] was 46.8 µM; in assay [2], 23.6 µM; in [3] it was 13.4 µM; in assay [4], 22.3 µM; in [5], 40.5 µM; in assay [6], 14.4 µM. The GI50 is 5.53 µM in assay [7], 20.1 µM in [8], 27.6 µM in assay [9] and 8.15 µM in assay [10]. Moreover, the TGI was greater than 100 µM in [1]; 93.6 µM in assay [2]; 56.4 µM in assay [3]; 85.1 µM in assay [4]; greater than 100 µM in assay [5]; 38.9 µM in [6]. Besides, the TGI is 44.8 µM in [7], 63.8 µM in assay [8], greater than 100 µM in [9] and 34.9 µM in assay [10].

Regarding `Cc1csc(/C=N/NC(=O)c2nnn(-c3ccnc4c(C(F)(F)F)cccc34)c2C)c1`, the GI50 is greater than 100 µM in [1]; greater than 100 µM in [2]; 36.9 µM in assay [3]; 63.5 µM in assay [4]; greater than 100 µM in assay [5]; 26.9 µM in assay [6]. The GI50 is 5.2 µM in assay [7], greater than 100 µM in assay [8], 22.3 µM in assay [9] and greater than 100 µM in [10]. The TGI is greater than 100 µM in assay [1]; greater than 100 µM in assay [2]; greater than 100 µM in [3]; greater than 100 µM in assay [4]; greater than 100 µM in assay [5]; 92.2 µM in assay [6]. The TGI in assay [7] was 37.4 µM; in assay [8], greater than 100 µM; in [9], greater than 100 µM; in assay [10], greater than 100 µM.

In the case of `CN(CCC#N)c1ccc(/C=C(\C#N)c2cccc(C(F)(F)F)c2)cc1`, the GI50 in [1] was 4.15 µM; in assay [2] it was 11.3 µM; in assay [3] it was 3.14 µM; in assay [4], 6.2 µM; in assay [5], 4.3 µM; in assay [6], 3.59 µM. For the same molecule, the GI50 in assay [7] is 4.71 µM; in assay [8], 4.31 µM; in [9], 3.75 µM; in assay [10], 2.27 µM. The TGI in [1], in assay [2], in assay [3], in assay [4], in assay [5] and in assay [6] was greater than 100 µM in each case. The TGI in assay [7], in [8], in [9] and in assay [10] was greater than 100 µM throughout.

For `COC1C(O)C(C)OC(OC2C(Oc3cccc4c(O)c5c(=O)oc6ccc(C)c7c(=O)oc(c34)c5c67)OC(C)C3O[C@H](c4ccccc4)OC32)C1O` (some centres undefined), the TGI in [1] worked out at 7.16 µM; in assay [2], 3.19 µM; in assay [3], 6.65 µM; in [4] it was 2.17 µM; in assay [5] it was 17.9 µM; in [6], 3.72 µM. Besides, the TGI is 9.75 µM in [7], 2.23 µM in assay [8], 10.9 µM in [9] and 2.43 µM in assay [10]. The GI50 in assay [2] is 0.484 µM; in [3], 0.516 µM; in assay [4], 0.15 µM; in [8], 0.198 µM.

`COc1cc2ccccc2c2cc([N+](=O)[O-])oc12`: the TGI in assay [1] is 7.49 µM; in assay [2], 7.49 µM; in [3], 23.7 µM; in assay [4] it was 32 µM; in [5], 10.1 µM; in [6], 0.418 µM. For the same molecule, the TGI in [7] is greater than 44 µM; in assay [8], 7.75 µM; in assay [9], 7.14 µM; in [10] it was 3.1 µM.

`O=C(/C=C/c1ccccc1)c1c[nH]c2ccccc2c1=O`: the GI50 in assay [1] was 4.01 µM; in assay [2], 1.57 µM; in assay [3] it was 2.08 µM; in assay [4], 3.5 µM; in assay [5], 2.32 µM; in assay [6], 8.81 µM. Further, the GI50 in assay [7] was 4.88 µM; in [8] it was 2.55 µM; in assay [9] it was 2.29 µM; in assay [10] it was 3.26 µM. Besides, the TGI worked out at 17.2 µM in assay [1]; 6.34 µM in assay [2]; 13.2 µM in [3]; 12.2 µM in [4]; 6.34 µM in [5]; 27.1 µM in assay [6]. For the same molecule, the TGI in [7] came to 23.5 µM; in [8] it was 8.81 µM; in assay [9], 11 µM; in assay [10] it was 14.7 µM.
